Test results published in patent publication US20230372327A1, “PHARMACEUTICAL COMPOSITION BASED ON […]/OR ITS SALTS FOR NASAL ADMINISTRATION” (Pharmbiotest Poland Sp. z o. o., priority 2020, published 2023).
Where a name gives a salt, the structure may show the parent alone. Read-outs that look alike come from different tables or passages of the source.

Tests used:
[1] = 12 volunteers
Source text: The total number of healthy adult male subjects enrolled was twelve. Throughout the study, the conditions of their hospital stay, a dietary pattern, a water consumption regimen, a physical activity regimen for the volunteers were standardized. The clinical step of study consisted of a screening, two study periods, a washout period, and the final examination. The total duration of study, starting from the screening through the completion of study, was approximately three weeks with a seven-day wash-out period between medication administrations. Each study period was preceded by inpatient hospitalization in the evening of the previous day. The medications were dosed on Day 1 of each study period starting from 08:00 a.m. The subjects stayed in the centre for 24 hours after the administration of the medication under study in each study period. In each study period the following was done: the intake of the medications under study whose prescription was determined by a simple randomization method; blood sampling for the determination of active pharmaceutical ingredient concentration; the measurement of vital data such as blood pressure (BP), heart rate; and questionnaire survey of volunteers. […]

clinical = details: male, human, plasma, other: intranasal (nasal spray), 10 mg
Source text: The total number of healthy adult male subjects enrolled was twelve. Throughout the study, the conditions of their hospital stay, a dietary pattern, a water consumption regimen, a physical activity regimen for the volunteers were standardized. The clinical step of study consisted of a screening, two study periods, a washout period, and the final examination. The total duration of study, starting from the screening through the completion of study, was approximately three weeks with a seven-day wash-out period between medication administrations. Each study period was preceded by inpatient hospitalization in the evening of the previous day. […] In each study period the following was done: the intake of the medications under study whose prescription was determined by a simple randomization method; blood sampling for the determination of active pharmaceutical ingredient concentration; the measurement of vital data such as blood pressure (BP), heart rate; and questionnaire survey of volunteers.
Blood was sampled as follows: 0 hours, 15 min., 30 min., 45 min., 1 hour, 1 hour 30 min., 2 hours, 2 hours 30 min., 3 hours, 4 hours, 6 hours, 8 hours, 12 hours, and 24 hours post-dosing. […] The actual sampling time was recorded. […]
AUC(0-∞) is AUC0-t plus the extrapolated AUC from time t to infinity [ng×h/mL]. The extrapolation is calculated from the last measured concentration (Ct): AUC(0-∞)=AUC(0-t)+Ct/Kel. […]

[2] = printed: following nasal use (administration); prior-art compositions, strong first-pass effect; cited from earlier work

Oc1ccc2c3c1O[C@H]1[C@@H](O)CC[C@@]4(O)[C@@H](C2)N(CC2CCC2)CC[C@]314 [nalbuphine, (5α.6α)-17-(cyclobutylmethyl)-4.5epoxy-morphinan-3.6.14-triol hydrochloride]
adverse reactions recorded ([1]; after intramuscular administration of 10 mg of nalbuphine): 24 cases
adverse reactions recorded ([1]; after intravenous administration of 10 mg of nalbuphine): 25 cases
bioavailability (clinical): 50%
bioavailability of nalbuphine [2]: 16.4 to 17.7%
